Measured values as given in ChEMBL document CHEMBL1201862, “PubChem BioAssay data set” (2004).
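Tested at 5 concentrations; 48 h exposure; 96-well plates; endpoints linearly interpolated, else capped at highest concentration. Here, GI50 denotes the concentration required for 50% inhibition of growth.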 Calls of active or inactive are those of the source. Rule as the data show it: active = GI50 up to about 1.1 µM and inactive = higher.

Experiments:
Assay in all cases: NCI anticancer screen, dose series, 48 h
K562 = tested on: K562
SF-539 = tested on: SF-539
HL-60 = tested on: HL-60
BT-549 = tested on: BT-549
SK-MEL-2 = tested on: SK-MEL-2
SK-OV-3 = tested on: SK-OV-3
OVCAR-4 = tested on: OVCAR-4
UO-31 = tested on: UO-31
Malme-3M = tested on: Malme-3M
PC-3 = tested on: PC-3
M14 = tested on: M14
UACC-62 = tested on: UACC-62
HCC 2998 = tested on: HCC 2998
SF-295 = tested on: SF-295
KM12 = tested on: KM12
UACC-257 = tested on: UACC-257
NCI-H460 = tested on: NCI-H460
T47D = tested on: T47D
CAKI-1 = tested on: CAKI-1

Measured: GI50

CC(C)(C)[C@H]1NC(=O)CN1C(=O)OCc1ccccc1
inactive: K562 66.7 µM | SF-539 > 100 µM | HL-60 > 100 µM | BT-549 > 100 µM | SK-MEL-2 > 100 µM | SK-OV-3 > 100 µM | OVCAR-4 > 100 µM | UO-31 9.35 µM | Malme-3M > 100 µM | PC-3 36.7 µM | M14 > 100 µM | UACC-62 > 100 µM | HCC 2998 > 100 µM | SF-295 45.6 µM | KM12 > 100 µM | UACC-257 98.9 µM | NCI-H460 > 100 µM | T47D 60.8 µM

Cc1cc2nnn(C3CCCO3)c2cc1C (stereo unspecified)
inactive: K562 > 100 µM | SF-539 > 100 µM | CAKI-1 > 100 µM | HL-60 > 100 µM | BT-549 > 100 µM | SK-MEL-2 > 100 µM | SK-OV-3 > 100 µM | Malme-3M > 100 µM | PC-3 > 100 µM | M14 > 100 µM | UACC-62 > 100 µM | HCC 2998 > 100 µM | SF-295 > 100 µM | UACC-257 > 100 µM | NCI-H460 > 100 µM | T47D > 100 µM

O=c1cc(O)c2ccccc2o1 [4-HYDROXYCOUMARINS]
inactive: K562 > 100 µM | SF-539 > 100 µM | CAKI-1 > 100 µM | HL-60 > 100 µM | BT-549 > 100 µM | OVCAR-4 > 100 µM | UO-31 > 100 µM | Malme-3M > 100 µM | PC-3 > 100 µM | M14 > 100 µM | UACC-62 > 100 µM | HCC 2998 > 100 µM | SF-295 > 100 µM | KM12 > 100 µM | UACC-257 > 100 µM | NCI-H460 > 100 µM | T47D > 100 µM

COc1cccc(CCCNC(=O)Cc2cc(OC)c(OC)cc2CO)c1
inactive: K562 > 100 µM | CAKI-1 > 100 µM | HL-60 > 100 µM | BT-549 > 100 µM | SK-MEL-2 > 100 µM | OVCAR-4 > 100 µM | UO-31 > 100 µM | Malme-3M > 100 µM | PC-3 > 100 µM | M14 > 100 µM | UACC-62 > 100 µM | HCC 2998 > 100 µM | KM12 > 100 µM | UACC-257 > 100 µM | NCI-H460 > 100 µM | T47D 39.1 µM

CSC1=N/C(=C\c2c[nH]c3ccccc23)C(=O)N1
inactive: K562 75.9 µM | SF-539 > 100 µM | HL-60 18.3 µM | BT-549 > 100 µM | SK-MEL-2 35.8 µM | SK-OV-3 > 100 µM | OVCAR-4 71.4 µM | UO-31 35.8 µM | Malme-3M 36.1 µM | PC-3 44.7 µM | M14 73.6 µM | UACC-62 92.9 µM | HCC 2998 21.9 µM | UACC-257 > 100 µM | NCI-H460 49.7 µM | T47D 53.2 µM

CCOC(=O)c1cn2c(n1)sc1cc(Cl)cc(Cl)c12
inactive: K562 > 100 µM | SF-539 > 100 µM | CAKI-1 > 100 µM | BT-549 > 100 µM | SK-MEL-2 > 100 µM | SK-OV-3 > 100 µM | OVCAR-4 > 100 µM | UO-31 > 100 µM | Malme-3M > 100 µM | PC-3 > 100 µM | M14 > 100 µM | UACC-62 > 100 µM | HCC 2998 > 100 µM | SF-295 > 100 µM | KM12 > 100 µM | UACC-257 > 100 µM | NCI-H460 > 100 µM | T47D > 100 µM

CCc1nc2c(n1CC)C(=O)c1ccccc1C2=O
inactive: K562 44.5 µM | SF-539 44.4 µM | HL-60 32.7 µM | BT-549 17.2 µM | OVCAR-4 34.9 µM | Malme-3M 15.5 µM | PC-3 18.8 µM | M14 23.7 µM | UACC-62 28.8 µM | HCC 2998 42.1 µM | SF-295 48.1 µM | KM12 45.3 µM | UACC-257 25.4 µM | NCI-H460 39.1 µM | T47D 18.3 µM

CC(=N/NC(=S)N1CCCCC1)/C(=N\NC(=S)N1CCCCC1)c1ccccc1
inactive: K562 4.74 µM | SF-539 2.67 µM | CAKI-1 2.04 µM | BT-549 1.91 µM | SK-MEL-2 2.11 µM | SK-OV-3 1.95 µM | OVCAR-4 1.85 µM | UO-31 1.76 µM | Malme-3M 2.13 µM | PC-3 1.64 µM | M14 1.99 µM | UACC-62 1.77 µM | HCC 2998 2.3 µM | SF-295 1.87 µM | KM12 1.97 µM | UACC-257 1.95 µM | NCI-H460 1.91 µM | T47D 2.12 µM

O=C1CC(=O)NC(NN2C(=O)CSC2c2ccccc2)=N1 (stereo unspecified)
inactive: K562 > 100 µM | SF-539 > 100 µM | CAKI-1 > 100 µM | BT-549 > 100 µM | SK-MEL-2 > 100 µM | SK-OV-3 > 100 µM | OVCAR-4 > 100 µM | UO-31 > 100 µM | Malme-3M > 100 µM | PC-3 > 100 µM | M14 > 100 µM | UACC-62 > 100 µM | HCC 2998 > 100 µM | SF-295 > 100 µM | KM12 > 100 µM | UACC-257 > 100 µM | NCI-H460 > 100 µM | T47D > 100 µM

CCNC1CC(C(C)(C)NCC)CC=C1C (stereo unspecified)
inactive: K562 > 100 µM | SF-539 > 100 µM | HL-60 > 100 µM | BT-549 > 100 µM | SK-OV-3 > 100 µM | OVCAR-4 > 100 µM | UO-31 > 100 µM | PC-3 > 100 µM | M14 > 100 µM | UACC-62 > 100 µM | HCC 2998 > 100 µM | SF-295 > 100 µM | KM12 > 100 µM | UACC-257 > 100 µM | NCI-H460 > 100 µM | T47D > 100 µM

Cc1nn(C(=O)Cc2ccccc2)c2c1C(c1ccc(O)cc1O)SC(=N)N2 (stereo unspecified)
inactive: SF-539 > 100 µM | CAKI-1 > 100 µM | HL-60 > 100 µM | BT-549 > 100 µM | SK-OV-3 > 100 µM | UO-31 > 100 µM | Malme-3M > 100 µM | PC-3 > 100 µM | M14 > 100 µM | UACC-62 > 100 µM | HCC 2998 > 100 µM | SF-295 > 100 µM | KM12 > 100 µM | UACC-257 > 100 µM | NCI-H460 > 100 µM | T47D > 100 µM

CCCCCCCCOC1C(O)C(O)C(O)C(O)C12CO2 (stereo unspecified)
inactive: K562 38.5 µM | SF-539 > 100 µM | CAKI-1 90.4 µM | HL-60 42 µM | BT-549 37.6 µM | SK-MEL-2 53.8 µM | SK-OV-3 38.3 µM | UO-31 78 µM | Malme-3M 57.5 µM | PC-3 55.3 µM | UACC-62 83.4 µM | HCC 2998 68.5 µM | SF-295 43.8 µM | KM12 43.9 µM | UACC-257 > 100 µM | NCI-H460 45.4 µM | T47D 63.2 µM
